In paper PMC7486406, “A flavin-dependent monooxygenase catalyzes the initial step in cyanogenic glycoside synthesis in ferns” (Communications Biology, 2020):

Tests used:
[1] = biological target: T1, PaqFOS1 (Pteridium aquilinum, UniProt A0A7H1KPE2); experiment: absorbance spectrometry; SEC monitored at […] nm; assay type: binding; details: cofactor of the isolated protein; 50 mM HEPES pH 7.5, 150 mM NaCl, 0.5 mM TCEP
T1 construct: gene FOS1; full-length, N-terminal 6xHis, codon-optimised, pET-30a(+), E. coli BL21(DE3)-R3; methods print contig as Paq18305

[2] = biological target: T1, PaqFOS1; experiment: absorbance spectrometry; SEC monitored at […] nm; assay type: binding; details: cofactor of the isolated protein; 50 mM HEPES pH 7.5, 150 mM NaCl, 0.5 mM TCEP; remark: listed apart in the source
[3] = biological target: the molecule itself; experiment: SEC; HiLoad 16/60 Superdex 200 calibrated with a high molecular weight kit (43 to 669 kDa); 50 mM HEPES pH 7.5, 150 mM NaCl, 0.5 mM TCEP; after His-Trap purification; self-association (dimer)

Row | Molecule | stoichiometry N [3] | other results
1 | Cc1cc2nc3c(=O)[nH]c(=O)nc-3n(C[C@H](O)[C@H](O)[C@H](O)COP(=O)(O)OP(=O)(O)OC[C@H]3O[C@@H](n4cnc5c(N)ncnc54)[C@H](O)[C@@H]3O)c2cc1C [FAD] |  | absorbance spectrometry; SEC monitored at 450 nm [1]: The isolated PaqFOS1 protein binds the cofactors FAD and NADPH as demonstrated by absorbance spectrometry
2 | NC(=O)C1=CN([C@@H]2O[C@H](COP(=O)(O)OP(=O)(O)OC[C@H]3O[C@@H](n4cnc5c(N)ncnc54)[C@H](OP(=O)(O)O)[C@@H]3O)[C@@H](O)[C@H]2O)C=CC1 [NADPH] |  | absorbance spectrometry; SEC monitored at 254 nm [2]: The isolated PaqFOS1 protein binds the cofactors FAD and NADPH as demonstrated by absorbance spectrometry
3 | Arabidopsis thaliana flavin-dependent monooxygenase 1 (AtFMO1), recombinant with upstream 6xHis tag (enzyme, A. thaliana, UniProt Q9LMA1 1-530, looked up, AtFMO1 from Arabidopsis thaliana (Q9LMA1), codon optimized for E. coli; The methods describe the isolation for PaqFOS1 only; AtFMO1 is said to have been expressed and isolated in parallel; source: E. coli BL21(DE3)-R3, pET-30a(+), expressed and isolated in parallel to PaqFOS1) MASNYDKLTSSRVAIIGAGVSGLAAAKNLVHHNPTVFEASDSVGGVWRSCTYETTKLQSARVDYEFSDFPWPNNRDDTTFPPYLEILDYLESYAKHFDLLKFMKFGSKVIEVRFIGDGETPQMVDLGAYGNLLPGKPVWEVAVQIGDSGDIQWHAFEFVVVCTGKYGDVPRIPAFPAKKGPEMFQGKVMHSMDYCKLEKEEASTLLSGKKVAVIGFKKSAIDLALESALANQGEGGKACTMVVRTTHWGIPHYWVWGLPFFLFYSSRASQFLHDRPNQSFLRTLFCLLFSLLRAVVSKFIESYVLWKLPLEKYGLKPNHSFEEDYASCQMAIIPENFFEEADKGMIRFKKSSKWWFYEEGIVFEDGTTLEADVVILATGYDGKKKLKAIVPEPFRTWLEFPSGVMPLYRGTIHPLIPNMGFVGYVQSSSNLHTSELRSMWLSRLVDEKFRLPSKEKMLDQFLKEMEVTRNSSRFYKRHCISTFSIQHADDMCNDMGLNPWRKSNFLLEAFSPYGSQDYRLGQEEKEDMTA | 2 | 
4 | Pteridium aquilinum fern oxime synthase 1 (PaqFOS1), recombinant with N-terminal 6xHis tag (enzyme, UniProt A0A7H1KPE2 1-543, looked up, identical to the 543 aa ORF of Pa22758 except for a single amino acid substitution; calculated mass 62.5 kDa; codon optimized for E. coli; No removal of the His tag is described; also called Paq18302; Paq18302 FMO) MAPNVPSAMYTTCLPERTALQEKLSGDRAALAARVCIVGAGVTGLCACKHLLQHGVESVVLEMQTGVGGVWRNTFSSTKLQTPRDAFQYSDFLWPPGTPRLPSHAQVLDYLESYARKFQVLERIVFNCRVLEVRRLDLEGPPPVSAFQKLPANAKWAVRVQQGSADLTQLDAEWLYFEYVLVCVGHYGDIAKTPKFAVPSKGPQAFHGKVLHSLDYSKLDEAATKKLLTGKRVIVVGSRKSALDAVMEASNSNRGPDGKPVTLLFRTPHWVIAHHFFYGIPMSYMTSRFSQLLVPQPGGGSTLHDIISAALSPLRWALSKALEFYLLSTLPLAEHGFVPNQNIFEEFKSCKLTLLPEHFFDYVKEGHIKLQKTSTWCFSSNGVTLPNGDELEADVIILCTGYEGERKIKSLLGTSFEDILQENDSSIPLYRGVLPPRIPNMAILGFQESYSNLFSAEMSARWVAYWIAGKIALPNKEIMEMEAYKWLRNTKPFMTINDKTCVNTTALQLADQMCRDMGWNSRRKKSLLQEIFAPYGNMDYKDE | 2 | 
